{"source": "patent US20260166076A1", "about": "“PHARMACEUTICAL COMPOSITION CONTAINING ZINC POLYPHOSPHATE” (Kamui Pharma, Inc., priority 2022, published 2026)", "key": {"[1]": {"tested_on": "DSS acute enteritis model", "experiment": "DSS acute enteritis model (Example 6): intestinal length and histopathological evaluation", "type": "in vivo, BALB/c mice", "settings": "DSS mice; polyphosphate 5 μg/head or TAC 60 μg/head oral daily day 0-7; day 8", "method": "(§1) Dextran sodium sulfate (DSS) (MP-BioMedicals; 160110) was dissolved in distilled water to prepare 2% DSS solution. Chemical-induced enteritis was triggered in BALB/c mice (Charles River, Japan) by administering the solution as drinking water ad libitum for 5 days, and acute enteritis was developed while distilled water was supplied as drinking water ad libitum from day 6 to day 8 (necropsy day). Each polyphosphate (PPA-Na, PPA-Ca, PPA-Zn, or PPA-Mg; 5 μg/head each) or tacrolimus (TAC; 60 μg/head; Sigma CORPORATION, PHR1809) was orally administered daily from day 0 to day 7, and on day 8, the mice were subjected to various tests.\n(§2) Mice were euthanized by cervical dislocation under isoflurane anesthesia, and the entire length of the colon was excised after opening the abdomen with scissors. The length of the excised colon was measured on a scale (FIG. 5).\n(§3) Each colon tissue was Swiss rolled (Moolenbeek C, Lab Anim. 1981) and fixed in 10% formalin according to the procedure instructed by Moolenbeek C et al. The tissue was paraffin-embedded, thinly sliced to 4 μm, and stained with hematoxylin & eosin as a prepared specimen. The tissue was pathologically evaluated by inflammatory tissue scoring (Berg DJ, J Clin Invest, 1996) as described by Berg et al. The improvement rate (%) was calculated according to the following formula (Table 4)."}, "[2]": {"tested_on": "inflammatory cytokines (TNFα, IL1β, IL6, IFNγ)", "experiment": "DSS acute enteritis model (Example 6): RT-PCR of inflammatory cytokines in intestinal mucosa", "type": "in vivo, BALB/c mice", "settings": "polyphosphate 5 μg/head or TAC 60 μg/head oral daily day 0-7, day 8", "method": "as §1\n(§4) The colon was cut and open in half using scissors, and the intestinal mucosa was detached with a slide glass. Intestinal mucosal tissue was soaked in 0.5 ml TRIzol (ThermoFisher Scientific K.K.), frozen in liquid nitrogen, and stored at −80° C. After thawing each stored sample at room temperature, RNA was recovered according to the procedure instructed by ThermoFisher Scientific K.K. The recovered total RNA was purified using an RNeasy Mini kit (Qiagen) and reverse-transcribed using a High-Capacity cDNA Reverse Transcription Kit (ThermoFisher Scientific K.K.). A PCR reaction was performed, using the recovered cDNA as a template, with EagleTaq Universal Master Mix with ROX (Roche). The primers (TaqMan Gene Expression Assays; ThermoFisher Scientific K.K.) used in the reaction are as follows. IL1β: Mm01336189, TNFα: Mm00443258, IL6: Mn00446190, IFNγ: Mm99999071. Changes in each gene expression level were standardized based on the expression level of Eukaryotic 18S rRNA Endogenous Control (ThermoFisher Scientific K.K.). Spectrum data was acquired using the Applied Biosystems 7300 Real Time PCR system."}, "[3]": {"tested_on": "DSS acute enteritis model", "experiment": "DSS acute enteritis model (Example 9, dose examination): intestinal length and histopathological evaluation", "type": "in vivo, BALB/c mice", "settings": "DSS mice; 20 μg/head oral daily day 5-11; day 12", "method": "as §2, §3\n(§5) Dextran sodium sulfate (DSS) (MP-BioMedicals; 160110) was dissolved in distilled water to prepare 2% DSS solution. Chemical-induced enteritis was triggered in BALB/c mice (Charles River, Japan) by administering the solution as drinking water ad libitum for 5 days, and acute enteritis was developed while distilled water was supplied as drinking water ad libitum from day 5 to day 12 (necropsy day). Zinc polyphosphate PPA-Zn (1, 5, 20, or 50 μg/head each) or tacrolimus (20 μg/head) was orally administered daily from day 5 to day 11, and on day 12, the mice were subjected to various tests (FIG. 8).\nThe intestinal length after zinc polyphosphate treatment was measured according to Example 6, and the improvement rate was calculated (FIG. 8).\nEach tissue was pathologically evaluated by inflammatory tissue scoring according to Example 6, and the improvement rate was calculated (Table 6)."}, "[4]": {"tested_on": "inflammatory cytokines (IL1β, TNFα, IL6, IFNγ, IL17A)", "experiment": "DSS acute enteritis model (Example 9, dose examination): RT-PCR of cytokine mRNA", "type": "in vivo, BALB/c mice", "settings": "20 μg/head oral daily day 5-11, day 12", "method": "as §4, §5\nThe mRNA expression levels of various cytokines (IL1β, TNFα, IL6, IFNγ, and IL17A) were analyzed according to Example 6, and the improvement rate was calculated (Table 6). The primers (TaqMan Gene Expression Assays; ThermoFisher Scientific K.K.) used in the reaction are as follows. IL1β: Mm01336189, TNFα: Mm00443258, IL6: Mn00446190, IFNγ: Mm99999071, IL17A: Mm00439618."}, "[5]": {"tested_on": "DSS acute enteritis model", "experiment": "DSS acute enteritis model (Example 10, after long-term storage): intestinal length and histopathological evaluation", "type": "in vivo", "settings": "DSS mice, day 12; PPA-Zn initial (not stored) or TAC", "method": "as §2, §3\n(§6) Zinc polyphosphate Test 15-2 was stored under a condition at 60° C. and 75% RH for 8 weeks according to Example 2. The zinc polyphosphate Test 15-2 after storage was used to evaluate efficacy in the DSS acute enteritis model, measure the intestinal length, perform RT-PCR, and evaluate the histopathological severity according to Example 6 (Table 7, FIG. 9).\n(§7) DDS acute enteritis model mice were generated according to Example 6 and subjected to various tests on day 12 (FIG. 9).\nThe intestinal length after zinc polyphosphate treatment was measured according to Example 6, and the improvement rate was calculated (FIG. 9).\nEach tissue was pathologically evaluated by inflammatory tissue scoring according to Example 6, and the improvement rate was calculated (Table 7)."}, "[6]": {"tested_on": "inflammatory cytokines (IL1β, TNFα, IL6, IFNγ, IL17A)", "experiment": "DSS acute enteritis model (Example 10, after long-term storage): RT-PCR of cytokine mRNA", "type": "in vivo, mice", "settings": "day 12, PPA-Zn initial (not stored) or TAC", "method": "as §4, §6, §7\nThe mRNA expression levels of various cytokines (IL1β, TNFα, IL6, IFNγ, and IL17A) were analyzed according to Example 6, and the improvement rate was calculated (Table 7). The primers (TaqMan Gene Expression Assays; ThermoFisher Scientific K.K.) used in the reaction are as follows. IL1β: Mm01336189, TNFα: Mm00443258, IL6: Mn00446190, IFNγ: Mm99999071, IL17A: Mm00439618."}, "[7]": {"settings": "relative value when control is set to 1"}}, "note": "Marks after values point to notes of the source that are not given here."}
{"smiles": "C=CC[C@@H]1/C=C(\\C)C[C@H](C)C[C@H](OC)[C@H]2O[C@@](O)(C(=O)C(=O)N3CCCC[C@H]3C(=O)O[C@H](/C(C)=C/[C@@H]3CC[C@@H](O)[C@H](OC)C3)[C@H](C)[C@@H](O)CC1=O)[C@H](C)C[C@@H]2OC", "note": "[TAC, tacrolimus]", "values": [{"measurement": "Improvement rate Histological severity", "setting": "[1]", "result": 40, "unit": "% *"}, {"measurement": "Improvement rate Intestinal length", "setting": "[1]", "result": 43, "unit": "% *"}, {"measurement": "Macro findings Intestinal length", "setting": "[1]", "result": "109.8 ± 6.5", "unit": "mm"}, {"measurement": "Micro findings Histological severity", "setting": "[1]", "result": "1.8 ± 0.4"}, {"measurement": "Improvement rate IFNγ", "setting": "[2]; DSS mice", "result": 98, "unit": "%"}, {"measurement": "Improvement rate IL1β", "setting": "[2]; DSS mice", "result": 88, "unit": "% *"}, {"measurement": "Improvement rate IL6", "setting": "[2]; DSS mice", "result": 94, "unit": "%"}, {"measurement": "Improvement rate TNFα", "setting": "[2]; DSS mice", "result": 85, "unit": "% *"}, {"measurement": "Changes in inflammatory cytokines IFNγ", "setting": "[2]; [7]", "result": "2 ± 0.9"}, {"measurement": "Changes in inflammatory cytokines IL1β", "setting": "[2]; [7]", "result": "6.7 ± 6.3"}, {"measurement": "Changes in inflammatory cytokines IL6", "setting": "[2]; [7]", "result": "5.1 ± 2.3"}, {"measurement": "Changes in inflammatory cytokines TNFα", "setting": "[2]; [7]", "result": "2.2 ± 0.5"}, {"measurement": "Improvement rate Histological severity", "setting": "[3]", "result": 27, "unit": "%"}, {"measurement": "Improvement rate Intestinal length", "setting": "[3]", "result": 9, "unit": "%"}, {"measurement": "Macro findings Intestinal length", "setting": "[3]", "result": "99.4 ± 12.6", "unit": "mm"}, {"measurement": "Micro findings Histological sovority", "setting": "[3]", "result": "2.4 ± 1.3"}, {"measurement": "Improvement rate IFNγ", "setting": "[4]; DSS mice", "result": 63, "unit": "%"}, {"measurement": "Improvement rate IL1β", "setting": "[4]; DSS mice", "result": 31, "unit": "%"}, {"measurement": "Improvement rate IL6", "setting": "[4]; DSS mice", "result": 73, "unit": "%"}, {"measurement": "Improvement rate IL17A", "setting": "[4]; DSS mice", "result": 66, "unit": "%"}, {"measurement": "Improvement rate TNFα", "setting": "[4]; DSS mice", "result": 39, "unit": "%"}, {"measurement": "Changes in inflammatory cytokines IFNγ", "setting": "[4]; [7]", "result": "1.5 ± 0.8"}, {"measurement": "Changes in inflammatory cytokines IL1β", "setting": "[4]; [7]", "result": "85.9 ± 117.1"}, {"measurement": "Changes in inflammatory cytokines IL6", "setting": "[4]; [7]", "result": "27.2 ± 52.4"}, {"measurement": "Changes in inflammatory cytokines IL17A", "setting": "[4]; [7]", "result": "53.9 ± 77"}, {"measurement": "Changes in inflammatory cytokines TNFα", "setting": "[4]; [7]", "result": "5.4 ± 4.5"}, {"measurement": "Improvement rate Histological severity", "setting": "[5]", "result": 42, "unit": "%"}, {"measurement": "Improvement rate Intestinal length", "setting": "[5]", "result": 12, "unit": "%"}, {"measurement": "Macro findings Intestinal length", "setting": "[5]", "result": "89 ± 4.5", "unit": "mm"}, {"measurement": "Micro findings Histological severity", "setting": "[5]", "result": "2.3 ± 0.5"}, {"measurement": "Improvement rate IFNγ", "setting": "[6]; DSS mice", "result": 79, "unit": "%"}, {"measurement": "Improvement rate IL1β", "setting": "[6]; DSS mice", "result": 44, "unit": "%"}, {"measurement": "Improvement rate IL6", "setting": "[6]; DSS mice", "result": 76, "unit": "%"}, {"measurement": "Improvement rate IL17A", "setting": "[6]; DSS mice", "result": 80, "unit": "%"}, {"measurement": "Improvement rate TNFα", "setting": "[6]; DSS mice", "result": 50, "unit": "%"}, {"measurement": "Changes in inflammatory cytokines IFNγ", "setting": "[6]; [7]", "result": "12.1 ± 27.7"}, {"measurement": "Changes in inflammatory cytokines IL1β", "setting": "[6]; [7]", "result": "201.1 ± 211.7"}, {"measurement": "Changes in inflammatory cytokines IL6", "setting": "[6]; [7]", "result": "49.5 ± 55.5"}, {"measurement": "Changes in inflammatory cytokines IL17A", "setting": "[6]; [7]", "result": "192.9 ± 321.9"}, {"measurement": "Changes in inflammatory cytokines TNFα", "setting": "[6]; [7]", "result": "8.2 ± 5"}]}
